One assay relates to patients. Particulars: insulin infusion, glucose levels kept constant in patients; cited from earlier work.
Assay [1] concerns diabetic rats. The assay is described as follows: Serum glucose and body weight in the same experiment at 10 weeks. The format is in vivo, rat. Particulars: 0.3 U insulin per kg per day intracerebroventricular. As for the experimental part:
(§1) Adult rats were randomly assigned to treatment groups, some of which were treated with streptozotocin to induce diabetes. Alzet osmotic minipumps (pump rate, 0.5 μl per hour) were connected to catheters that delivered either artificial cerebrospinal fluid (D+aCSF) or 0.3 U insulin per kg body weight per day (D+Insulin) into the brain lateral ventricles of diabetic rats for 10 weeks. Pumps were replaced every two weeks. Brains were removed and the wet weight determined. The brains were homogenized in a buffer, and aliquots were taken to determine dry weight. The water weight was calculated as the difference between brain wet and dry weights. The results are shown in FIGS. 1A-1C, wherein the values are means±SEM (N=7 rats per group). Newman-Keuls posthoc test of means was calculated using CSS Statistica software package.
In the same experiment described in FIGS. 1A-1C, rats were weighed and tail blood was withdrawn for glucose assay prior to euthanasia at 10 weeks. Values are means±SEM. Newman-Keuls posthoc test of means was calculated using CSS Statistica software package.

For assay [2], the system named is diabetic rats. The assay is described as follows: Brain atrophy in streptozotocin-diabetic rats, insulin infused into brain lateral ventricles. Format: in vivo, rat. Conditions: 0.3 U insulin per kg body weight per day into brain lateral ventricles for 10 weeks; D+Insulin vs D+aCSF P<0.02; N=7 rats per group. As for the experimental part:
as §1

The source of these data is patent publication US20120195959A1, “METHOD FOR TREATING DISEASE OR DISORDER OF ADULT CENTRAL NERVOUS SYSTEM ASSOCIATED WITH TISSUE SHRINKAGE OR ATROPHY BY ADMINISTRATION OF INSULIN” (priority 2005, published 2012).

Entries after “also recorded” stand apart in the source; their conditions may differ.

In the case of insulin, in the assay with patients, the “number of different genes whose expression is regulated in a muscle biopsy” value was “over 700”. Moreover, in the assay on diabetic rats [1] (D+Insulin vs D+aCSF P<0.02), the “loss of body weight” value was “partially prevented loss of body weights”. The “hyperglycemia (serum glucose levels)” value in the assay with diabetic rats [1] (D+Insulin vs D+aCSF nonsignificant) is listed as “no effect on hyperglycemia”. Moreover, in the assay on diabetic rats [2], the “brain atrophy, loss of brain wet and dry weights” value was “prevented brain atrophy; also recorded: completely normalized brain weight”.
